{
  "source": "ChEMBL document CHEMBL1649268",
  "about": "“Comparative in vitro activity profile of oritavancin against recent gram-positive clinical isolates” (2009)",
  "format_in_all_cases": "functional",
  "key": {"[1]": {"system": "Enterococcus faecium", "assay": "Antimicrobial activity against Enterococcus faecium expressing VanB gene clinical isolates assessed as percent susceptible isolates by broth microdilution method"}, "[2]": {"system": "Enterococcus faecium", "assay": "Antimicrobial activity against Enterococcus faecium expressing VanA gene clinical isolates assessed as percent susceptible isolates by broth microdilution method"}, "[3]": {"system": "Enterococcus faecium", "assay": "Antimicrobial activity against vancomycin-nonsusceptible Enterococcus faecium clinical isolates assessed as percent susceptible isolates by broth microdilution method"}, "[4]": {"system": "Enterococcus faecium", "assay": "Antimicrobial activity against vancomycin-susceptible Enterococcus faecium clinical isolates assessed as percent susceptible isolates by broth microdilution method"}, "[5]": {"system": "Enterococcus faecium", "assay": "Antimicrobial activity against Enterococcus faecium clinical isolates assessed as percent susceptible isolates by broth microdilution method"}, "[6]": {"system": "Enterococcus faecalis", "assay": "Antimicrobial activity against Enterococcus faecalis expressing VanB gene clinical isolates assessed as percent susceptible isolates by broth microdilution method"}, "[7]": {"system": "Enterococcus faecalis", "assay": "Antimicrobial activity against Enterococcus faecalis expressing VanA gene clinical isolates assessed as percent susceptible isolates by broth microdilution method"}, "[8]": {"system": "Enterococcus faecalis", "assay": "Antimicrobial activity against vancomycin-nonsusceptible Enterococcus faecalis clinical isolates assessed as percent susceptible isolates by broth microdilution method"}, "[9]": {"system": "Enterococcus faecalis", "assay": "Antimicrobial activity against vancomycin-susceptible Enterococcus faecalis clinical isolates assessed as percent susceptible isolates by broth microdilution method"}, "[10]": {"system": "Enterococcus faecalis", "assay": "Antimicrobial activity against Enterococcus faecalis clinical isolates assessed as percent susceptible isolates by broth microdilution method"}, "[11]": {"system": "Enterococcus faecium", "assay": "Antimicrobial activity against Enterococcus faecium expressing VanB gene clinical isolates assessed as resistant isolates by broth microdilution method"}, "[12]": {"system": "Enterococcus faecium", "assay": "Antimicrobial activity against Enterococcus faecium expressing VanA gene clinical isolates assessed as resistant isolates by broth microdilution method"}, "[13]": {"system": "Enterococcus faecium", "assay": "Antimicrobial activity against vancomycin-nonsusceptible Enterococcus faecium clinical isolates assessed as resistant isolates by broth microdilution method"}, "[14]": {"system": "Enterococcus faecium", "assay": "Antimicrobial activity against vancomycin-susceptible Enterococcus faecium clinical isolates assessed as resistant isolates by broth microdilution method"}, "[15]": {"system": "Enterococcus faecium", "assay": "Antimicrobial activity against Enterococcus faecium clinical isolates assessed as resistant isolates by broth microdilution method"}, "[16]": {"system": "Enterococcus faecalis", "assay": "Antimicrobial activity against Enterococcus faecalis expressing VanB gene clinical isolates assessed as resistant isolates by broth microdilution method"}, "[17]": {"system": "Enterococcus faecalis", "assay": "Antimicrobial activity against Enterococcus faecalis expressing VanA gene clinical isolates assessed as resistant isolates by broth microdilution method"}, "[18]": {"system": "Enterococcus faecalis", "assay": "Antimicrobial activity against vancomycin-nonsusceptible Enterococcus faecalis clinical isolates assessed as resistant isolates by broth microdilution method"}, "[19]": {"system": "Enterococcus faecalis", "assay": "Antimicrobial activity against vancomycin-susceptible Enterococcus faecalis clinical isolates assessed as resistant isolates by broth microdilution method"}, "[20]": {"system": "Enterococcus faecalis", "assay": "Antimicrobial activity against Enterococcus faecalis clinical isolates assessed as resistant isolates by broth microdilution method"}, "[21]": {"system": "Enterococcus faecium", "assay": "Antimicrobial activity against Enterococcus faecium expressing VanB gene clinical isolates by broth microdilution method"}, "[22]": {"system": "Enterococcus faecium", "assay": "Antimicrobial activity against Enterococcus faecium expressing VanA gene clinical isolates by broth microdilution method"}, "[23]": {"system": "Enterococcus faecium", "assay": "Antimicrobial activity against vancomycin-nonsusceptible Enterococcus faecium clinical isolates by broth microdilution method"}, "[24]": {"system": "Enterococcus faecium", "assay": "Antimicrobial activity against vancomycin-susceptible Enterococcus faecium clinical isolates by broth microdilution method"}, "[25]": {"system": "Enterococcus faecium", "assay": "Antimicrobial activity against Enterococcus faecium clinical isolates by broth microdilution method"}, "[26]": {"system": "Enterococcus faecalis", "assay": "Antimicrobial activity against Enterococcus faecalis expressing VanB gene clinical isolates by broth microdilution method"}, "[27]": {"system": "Enterococcus faecalis", "assay": "Antimicrobial activity against Enterococcus faecalis expressing VanA gene clinical isolates by broth microdilution method"}, "[28]": {"system": "Enterococcus faecalis", "assay": "Antimicrobial activity against vancomycin-nonsusceptible Enterococcus faecalis clinical isolates by broth microdilution method"}, "[29]": {"system": "Enterococcus faecalis", "assay": "Antimicrobial activity against vancomycin-susceptible Enterococcus faecalis clinical isolates by broth microdilution method"}, "[30]": {"system": "Enterococcus faecalis", "assay": "Antimicrobial activity against Enterococcus faecalis clinical isolates by broth microdilution method"}, "[31]": {"system": "Streptococcus pneumoniae", "assay": "Antimicrobial activity against Streptococcus pneumoniae clinical isolates by broth microdilution method"}, "[32]": {"system": "Streptococcus pneumoniae", "assay": "Antimicrobial activity against penicillin-susceptible Streptococcus pneumoniae clinical isolates by broth microdilution method"}, "[33]": {"system": "Streptococcus pneumoniae", "assay": "Antimicrobial activity against penicillin-intermediate Streptococcus pneumoniae clinical isolates by broth microdilution method"}, "[34]": {"system": "Streptococcus pneumoniae", "assay": "Antimicrobial activity against penicillin-resistant Streptococcus pneumoniae clinical isolates by broth microdilution method"}, "[35]": {"system": "Streptococcus pneumoniae", "assay": "Antimicrobial activity against Streptococcus pneumoniae clinical isolates assessed as percent susceptible isolates by broth microdilution method"}, "[36]": {"system": "Streptococcus pneumoniae", "assay": "Antimicrobial activity against penicillin-susceptible Streptococcus pneumoniae clinical isolates assessed as percent susceptible isolates by broth microdilution method"}, "[37]": {"system": "Streptococcus pneumoniae", "assay": "Antimicrobial activity against penicillin-intermediate Streptococcus pneumoniae clinical isolates assessed as percent susceptible isolates by broth microdilution method"}, "[38]": {"system": "Streptococcus pneumoniae", "assay": "Antimicrobial activity against penicillin-resistant Streptococcus pneumoniae clinical isolates assessed as percent susceptible isolates by broth microdilution method"}, "[39]": {"system": "Streptococcus pneumoniae", "assay": "Antimicrobial activity against Streptococcus pneumoniae clinical isolates assessed as resistant isolates by broth microdilution method"}, "[40]": {"system": "Streptococcus pneumoniae", "assay": "Antimicrobial activity against penicillin-susceptible Streptococcus pneumoniae clinical isolates assessed as resistant isolates by broth microdilution method"}, "[41]": {"system": "Streptococcus pneumoniae", "assay": "Antimicrobial activity against penicillin-intermediate Streptococcus pneumoniae clinical isolates assessed as resistant isolates by broth microdilution method"}, "[42]": {"system": "Streptococcus pneumoniae", "assay": "Antimicrobial activity against penicillin-resistant Streptococcus pneumoniae clinical isolates assessed as resistant isolates by broth microdilution method"}},
  "data": [
    {"smiles": "CC1(C)S[C@@H]2[C@H](NC(=O)[C@H](N)c3ccccc3)C(=O)N2[C@H]1C(=O)O", "note": "[AMPICILLIN]", "values": [
      {"measurement": "Activity", "setting": "[1]", "result": 3.4, "unit": "%"},
      {"measurement": "Activity", "setting": "[2]", "result": 1, "unit": "%"},
      {"measurement": "Activity", "setting": "[3]", "result": 1.5, "unit": "%"},
      {"measurement": "Activity", "setting": "[4]", "result": 27.7, "unit": "%"},
      {"measurement": "Activity", "setting": "[5]", "result": 12.7, "unit": "%"},
      {"measurement": "Activity", "setting": "[6]", "result": 100, "unit": "%"},
      {"measurement": "Activity", "setting": "[7]", "result": 100, "unit": "%"},
      {"measurement": "Activity", "setting": "[8]", "result": 100, "unit": "%"},
      {"measurement": "Activity", "setting": "[9]", "result": 99.9, "unit": "%"},
      {"measurement": "Activity", "setting": "[10]", "result": 99.9, "unit": "%"},
      {"measurement": "Activity", "setting": "[11]", "result": 96.6, "unit": "%"},
      {"measurement": "Activity", "setting": "[12]", "result": 99, "unit": "%"},
      {"measurement": "Activity", "setting": "[13]", "result": 98.5, "unit": "%"},
      {"measurement": "Activity", "setting": "[14]", "result": 72.3, "unit": "%"},
      {"measurement": "Activity", "setting": "[15]", "result": 87.3, "unit": "%"},
      {"measurement": "Activity", "setting": "[16]", "result": 0, "unit": "%"},
      {"measurement": "Activity", "setting": "[17]", "result": 0, "unit": "%"},
      {"measurement": "Activity", "setting": "[18]", "result": 0, "unit": "%"},
      {"measurement": "Activity", "setting": "[19]", "result": 0.1, "unit": "%"},
      {"measurement": "Activity", "setting": "[20]", "result": 0.1, "unit": "%"},
      {"measurement": "MIC90", "setting": "[21]", "result": "> 256", "unit": "µg/mL"},
      {"measurement": "MIC90", "setting": "[22]", "result": "> 256", "unit": "µg/mL"},
      {"measurement": "MIC90", "setting": "[23]", "result": "> 256", "unit": "µg/mL"},
      {"measurement": "MIC90", "setting": "[24]", "result": 256, "unit": "µg/mL"},
      {"measurement": "MIC90", "setting": "[25]", "result": "> 256", "unit": "µg/mL"},
      {"measurement": "MIC90", "setting": "[26]", "result": 2, "unit": "µg/mL"},
      {"measurement": "MIC90", "setting": "[27]", "result": 2, "unit": "µg/mL"},
      {"measurement": "MIC90", "setting": "[28]", "result": 2, "unit": "µg/mL"},
      {"measurement": "MIC90", "setting": "[29]", "result": 1, "unit": "µg/mL"},
      {"measurement": "MIC90", "setting": "[30]", "result": 1, "unit": "µg/mL"}
    ]},
    {"smiles": "CO/N=C(\\C(=O)N[C@@H]1C(=O)N2C(C(=O)O)=C(CSc3nc(=O)c(O)nn3C)CS[C@H]12)c1csc(N)n1", "note": "[CEFTRIAXONE]", "values": [
      {"measurement": "MIC90", "setting": "[31]", "result": 1, "unit": "µg/mL"},
      {"measurement": "MIC90", "setting": "[32]", "result": 0.03, "unit": "µg/mL"},
      {"measurement": "MIC90", "setting": "[33]", "result": 0.5, "unit": "µg/mL"},
      {"measurement": "MIC90", "setting": "[34]", "result": 2, "unit": "µg/mL"},
      {"measurement": "Activity", "setting": "[35]", "result": 97, "unit": "%"},
      {"measurement": "Activity", "setting": "[36]", "result": 100, "unit": "%"},
      {"measurement": "Activity", "setting": "[37]", "result": 99.5, "unit": "%"},
      {"measurement": "Activity", "setting": "[38]", "result": 80.4, "unit": "%"},
      {"measurement": "Resistant isolates", "setting": "[39]", "result": 1.2, "unit": "%"},
      {"measurement": "Percent of isolates resistant", "setting": "[40]", "result": 0, "unit": "%"},
      {"measurement": "Percent of isolates resistant", "setting": "[41]", "result": 0.5, "unit": "%"},
      {"measurement": "Percent of isolates resistant", "setting": "[42]", "result": 7.4, "unit": "%"}
    ]},
    {"smiles": "CO/N=C(\\C(=O)N[C@@H]1C(=O)N2C(C(=O)OC(C)OC(C)=O)=C(COC(N)=O)CS[C@H]12)c1ccco1", "note": "(stereo not given in full) [CEFUROXIME AXETIL]", "values": [
      {"measurement": "MIC90", "setting": "[31]", "result": 4, "unit": "µg/mL"},
      {"measurement": "MIC", "setting": "[32]", "result": "≤ 0.12", "unit": "µg/mL"},
      {"measurement": "MIC90", "setting": "[32]", "result": "≤ 0.12", "unit": "µg/mL"},
      {"measurement": "MIC90", "setting": "[33]", "result": 4, "unit": "µg/mL"},
      {"measurement": "MIC90", "setting": "[34]", "result": "> 4", "unit": "µg/mL"},
      {"measurement": "Activity", "setting": "[35]", "result": 75.9, "unit": "%"},
      {"measurement": "Activity", "setting": "[36]", "result": 100, "unit": "%"},
      {"measurement": "Activity", "setting": "[37]", "result": 56, "unit": "%"},
      {"measurement": "Activity", "setting": "[38]", "result": 0, "unit": "%"},
      {"measurement": "Resistant isolates", "setting": "[39]", "result": 18.9, "unit": "%"},
      {"measurement": "Percent of isolates resistant", "setting": "[40]", "result": 0, "unit": "%"},
      {"measurement": "Percent of isolates resistant", "setting": "[41]", "result": 20.4, "unit": "%"},
      {"measurement": "Percent of isolates resistant", "setting": "[42]", "result": 99.3, "unit": "%"}
    ]}
  ]
}
